Target: T1, human PPARα (Homo sapiens, UniProt Q07869)
T1 construct: expressed in transfected cells
T1 sequence (Q07869 239-466 limits assumed): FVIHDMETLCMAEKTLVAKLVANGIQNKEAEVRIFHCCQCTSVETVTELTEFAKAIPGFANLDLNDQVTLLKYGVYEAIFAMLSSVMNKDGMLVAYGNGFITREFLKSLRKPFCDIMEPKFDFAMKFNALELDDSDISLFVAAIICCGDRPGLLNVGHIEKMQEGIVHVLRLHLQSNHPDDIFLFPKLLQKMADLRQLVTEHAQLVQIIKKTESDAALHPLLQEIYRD
Assay: PPARα transactivation assay (HeLa cells, luciferase reporter)
Assay type: cell-based
Settings: HeLa cells, n=12; read-out: half-maximal effective concentration (EC50), PPARα activation
Description: Transactivation assays were performed as previously described [Fu et al., Nature 425:90-93 (2003)].
PPAR-α transactivation. Plasmids were generated which contained the ligand-binding domain of human PPAR-α (nucleotides 499-1,407) fused to the DNA-binding domain of yeast GAL4 under control of the human cytomegalovirus promoter and to a neomycin resistance gene to provide stable selection with 0.2 mg-ml-1 G418 (Calbiochem). We cultured HeLa cells in Dulbecco's-modified Eagles's medium (DMEM) supplemented with fetal bovine serum (10%), transfected them with Fugene 6 ([…], Roche) containing the pFR-luc plasmid ([…], Stratagene) and, 18 h later, replaced the media with DMEM containing hygromycin (0.1 mg ml−1, Calbiochem). […] Cells were maintained in DMEM containing hygromycin and G418. For transactivation assays, we seeded cells in 6-well plates and incubated them for 7 h in DMEM containing hygromycin and G418, plus appropriate concentrations of test compounds. We used a dual-luciferase reporter assay system (Promega) and an MLX Microtiter® plate luminometer (Dynex) to determine luciferase activity in cell lysates.

EC50: 3 µM
SMILES: CCCCCCCCCCCCCCCC(=O)NCCO [PEA, palmitoylethanolamide]

Source: patent US20080103209A1, “Compounds And Methods For Treating Non-Inflammatory Pain Using Ppar Alpha Agonists” (The Regents of The University of California, priority 2004, published 2008)
